Assay results as given in patent publication US9212182B2, “Bicyclic sulfonamide compounds as sodium channel inhibitors” (AMGEN INC., priority 2013, dated 2015).

Target: Nav 1.7 (Homo sapiens (Human), UniProt Q15858)
Assay: in-vitro Nav 1.7 PX (IC50)
Format: cell-based
Settings: not given

Chain of Nav 1.7 (Q15858 whole entry): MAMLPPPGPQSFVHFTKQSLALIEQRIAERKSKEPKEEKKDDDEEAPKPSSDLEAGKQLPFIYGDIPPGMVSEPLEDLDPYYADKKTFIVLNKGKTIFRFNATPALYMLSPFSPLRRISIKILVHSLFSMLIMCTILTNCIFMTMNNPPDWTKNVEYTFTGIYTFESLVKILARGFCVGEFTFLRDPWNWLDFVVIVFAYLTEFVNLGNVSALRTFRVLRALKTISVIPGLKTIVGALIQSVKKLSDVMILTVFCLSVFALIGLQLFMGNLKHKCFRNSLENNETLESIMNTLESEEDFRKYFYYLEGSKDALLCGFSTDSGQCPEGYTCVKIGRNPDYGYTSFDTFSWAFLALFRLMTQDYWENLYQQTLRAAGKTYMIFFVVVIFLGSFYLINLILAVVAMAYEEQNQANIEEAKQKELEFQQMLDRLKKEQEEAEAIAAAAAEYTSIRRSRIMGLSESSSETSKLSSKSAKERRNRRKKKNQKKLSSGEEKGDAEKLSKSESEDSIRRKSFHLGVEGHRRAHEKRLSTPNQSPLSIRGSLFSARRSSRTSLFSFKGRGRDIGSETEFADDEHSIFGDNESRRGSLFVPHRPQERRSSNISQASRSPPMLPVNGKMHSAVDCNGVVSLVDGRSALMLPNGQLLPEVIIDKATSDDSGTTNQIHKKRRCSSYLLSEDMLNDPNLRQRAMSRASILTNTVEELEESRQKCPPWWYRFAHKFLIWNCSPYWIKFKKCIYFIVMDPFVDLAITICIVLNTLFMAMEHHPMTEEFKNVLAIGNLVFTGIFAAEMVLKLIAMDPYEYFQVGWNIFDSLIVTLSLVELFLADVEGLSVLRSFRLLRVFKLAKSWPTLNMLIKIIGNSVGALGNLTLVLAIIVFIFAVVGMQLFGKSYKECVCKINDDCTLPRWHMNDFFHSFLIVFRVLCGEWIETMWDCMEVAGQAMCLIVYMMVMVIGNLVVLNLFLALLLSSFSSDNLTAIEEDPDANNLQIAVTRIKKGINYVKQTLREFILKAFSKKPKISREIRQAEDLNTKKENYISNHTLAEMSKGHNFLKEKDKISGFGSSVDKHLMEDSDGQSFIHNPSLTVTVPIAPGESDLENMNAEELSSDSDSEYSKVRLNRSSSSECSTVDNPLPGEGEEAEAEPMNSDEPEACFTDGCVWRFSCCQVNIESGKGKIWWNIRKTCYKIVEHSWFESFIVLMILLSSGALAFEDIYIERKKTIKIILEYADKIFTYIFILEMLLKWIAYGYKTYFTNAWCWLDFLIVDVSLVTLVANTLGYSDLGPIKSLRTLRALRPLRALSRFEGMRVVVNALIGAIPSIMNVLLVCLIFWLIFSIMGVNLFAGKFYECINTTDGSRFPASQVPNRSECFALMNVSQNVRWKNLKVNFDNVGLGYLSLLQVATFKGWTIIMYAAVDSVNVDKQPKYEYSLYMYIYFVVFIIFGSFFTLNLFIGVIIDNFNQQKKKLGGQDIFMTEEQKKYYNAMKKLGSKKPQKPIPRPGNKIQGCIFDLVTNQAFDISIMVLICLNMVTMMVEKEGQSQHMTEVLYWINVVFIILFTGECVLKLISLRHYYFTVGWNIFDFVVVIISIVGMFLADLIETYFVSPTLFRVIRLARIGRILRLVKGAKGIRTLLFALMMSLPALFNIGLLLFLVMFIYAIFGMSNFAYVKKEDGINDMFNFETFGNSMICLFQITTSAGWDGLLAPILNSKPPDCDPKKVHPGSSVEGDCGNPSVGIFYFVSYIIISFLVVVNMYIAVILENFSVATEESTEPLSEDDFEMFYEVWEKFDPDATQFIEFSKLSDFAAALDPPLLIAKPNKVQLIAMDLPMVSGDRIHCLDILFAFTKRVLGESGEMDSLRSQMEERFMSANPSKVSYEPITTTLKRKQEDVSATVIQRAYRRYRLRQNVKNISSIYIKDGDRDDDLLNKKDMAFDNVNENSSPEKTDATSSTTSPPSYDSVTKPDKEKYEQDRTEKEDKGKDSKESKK

IC50 [µM] | Compound
0.799 | COc1cc(-c2cccc(Cl)c2)c(C)cc1-n1c(=O)ccc2cc(S(=O)(=O)Nc3ccon3)ccc21 (atropisomer, axis not shown; (M)) [Example 313, (M)-1-(3′-chloro-5-methoxy-2-methyl-4-biphenylyl)-N-3-isoxazolyl-2-oxo-1,2-dihydro-6-quinolinesulfonamide]
3.89 | COc1cc(-c2cccc(Cl)c2)c(C)cc1-n1c(=O)ccc2cc(S(=O)(=O)Nc3ncccn3)ccc21 (atropisomer, axis not shown; (M)) [Example 322, (M)-1-(3′-chloro-5-methoxy-2-methyl-4-biphenylyl)-2-oxo-N-2-pyrimidinyl-1,2-dihydro-6-quinolinesulfonamide]
0.309 | COc1cc(-c2cc(F)cc(Cl)c2)c(C)cc1-n1c(=O)ccc2cc(S(=O)(=O)Nc3ccon3)ccc21 (atropisomer, axis not shown; (M)) [Example 418, (M)-1-(3′-chloro-5′-fluoro-5-methoxy-2-methyl-4-biphenylyl)-N-3-isoxazolyl-2-oxo-1,2-dihydro-6-quinolinesulfonamide]
6.09 | COc1cc(-c2ccc(Cl)c(C)c2)c(C)cc1-n1c(=O)ccc2cc(S(=O)(=O)Nc3ccon3)ccc21 (atropisomer, axis not shown; (M)) [Example 422, (M)-1-(4′-chloro-5-methoxy-2,3′-dimethyl-4-biphenylyl)-N-3-isoxazolyl-2-oxo-1,2-dihydro-6-quinolinesulfonamide]
20.1 | COc1cc(-c2cc(F)cnc2OC)c(C)cc1-n1c(=O)ccc2cc(S(=O)(=O)Nc3ccon3)ccc21 (atropisomer, axis not shown; (M)) [Example 425, (M)-1-(4-(5-fluoro-2-methoxy-3-pyridinyl)-2-methoxy-5-methylphenyl)-N-3-isoxazolyl-2-oxo-1,2-dihydro-6-quinolinesulfonamide]
7.59 | COc1cc(-c2cccc(F)c2)c(C)cc1-n1c(=O)ccc2cc(S(=O)(=O)Nc3ccon3)ccc21 (atropisomer, axis not shown; (M)) [Example 428, (M)-1-(3′-fluoro-5-methoxy-2-methyl-4-biphenylyl)-N-3-isoxazolyl-2-oxo-1,2-dihydro-6-quinolinesulfonamide]

More lines, now with the values behind:

Compound | IC50 [µM]
1-(2′-chloro-5-methoxy-2,3′-dimethyl-4-biphenylyl)-2-oxo-N-2-pyrimidinyl-1,2-dihydro-6-quinolinesulfonamide [Example 961] | 0.056
COc1cc(-c2cccc(Cl)c2)cc(F)c1-n1c(=O)ccc2cc(S(=O)(=O)Nc3ccon3)ccc21 (atropisomer, axis not shown; (M)) [Example 319, (M)-1-(3′-chloro-3-fluoro-5-methoxy-4-biphenylyl)-N-3-isoxazolyl-2-oxo-1,2-dihydro-6-quinolinesulfonamide] | 0.207
COc1cc(-c2cccc(F)c2)c(Cl)cc1-n1c(=O)ccc2cc(S(=O)(=O)Nc3nncs3)ccc21 (atropisomer, axis not shown; (M)) [Example 354, (M)-1-(2-chloro-3′-fluoro-5-methoxy-[1,1′-biphenyl]-4-yl)-2-oxo-N-(1,3,4-THIADIAZOL-2-yl)-1,2-dihydroquinoline-6-sulfonamide] | 5.86
COc1cc(-c2cccc(F)c2)c(Cl)cc1-n1c(=O)ccc2cc(S(=O)(=O)Nc3ccon3)c(F)cc21 (atropisomer, axis not shown; (M)) [Example 357, (M)-1-(2-chloro-3′-fluoro-5-methoxy-[1,1′-biphenyl]-4-yl)-7-fluoro-N-(isoxazol-3-yl)-2-oxo-1,2-dihydroquinoline-6-sulfonamide] | 0.04
COc1ccc(-c2cccc(C(F)(F)F)c2)cc1-n1c(=O)ccc2cc(S(=O)(=O)Nc3ccon3)ccc21 (atropisomer, axis not shown; (M)) [Example 382, (M)-N-3-isoxazolyl-1-(4-methoxy-3′-(trifluoromethyl)-3-biphenylyl)-2-oxo-1,2-dihydro-6-quinolinesulfonamide] | 3.08
CCOc1cc(-c2cccc(F)c2)c(F)cc1-n1c(=O)ccc2cc(S(=O)(=O)Nc3ccon3)ccc21 (atropisomer, axis not shown; (M)) [Example 389, (M)-1-(5-ethoxy-2,3′-difluoro-[1,1′-biphenyl]-4-yl)-N-(isoxazol-3-yl)-2-oxo-1,2-dihydroquinoline-6-sulfonamide] | 0.239
COc1cc(-c2ccc(Cl)c(C)c2)c(F)cc1-n1c(=O)c(OC)cc2cc(S(=O)(=O)Nc3ccon3)ccc21 (atropisomer, axis not shown; (M)) [Example 413, (M)-1-(4′-chloro-2-fluoro-5-methoxy-3′-methyl-[1,1′-biphenyl]-4-yl)-N-(isoxazol-3-yl)-3-methoxy-2-oxo-1,2-dihydroquinoline-6-sulfonamide] | 5.89

Same assay, conditions: in-vitro Nav 1.7 PX data

Compound | IC50 [µM]
1-(3′-(difluoromethoxy)-2-fluoro-5-methoxy-4-biphenylyl)-N-(5-fluoro-2-pyrimidinyl)-2-oxo-1,2-dihydro-6-quinolinesulfonamide [Example 907] | 0.191
1-(4′-chloro-2-fluoro-3′,5-dimethyl-4-biphenylyl)-2-oxo-N-3-pyridazinyl-1,2-dihydro-6-quinolinesulfonamide [Example 973] | 0.09
COc1cc(-c2ccc(Cl)cc2)c(F)cc1-n1c(=O)ccc2cc(S(=O)(=O)Nc3ncccn3)ccc21 (atropisomer, axis not shown) [Example 598, 1-(4′-chloro-2-fluoro-5-methoxy-4-biphenylyl)-2-oxo-N-2-pyrimidinyl-1,2-dihydro-6-quinolinesulfonamide] | 0.028

Same assay, conditions: in-vitro PatchXpress (PX)

IC50 [µM] | Compound
1.26 | COc1cc(-c2ccc(F)c(Cl)c2)c(F)cc1-n1c(=O)ccc2cc(S(=O)(=O)Nc3ccon3)ccc21 (atropisomer, axis not shown; (M)) [Example 366, (M)-1-(3′-chloro-2,4′-difluoro-5-methoxy-4-biphenylyl)-N-3-isoxazolyl-2-oxo-1,2-dihydro-6-quinolinesulfonamide]
0.677 | COc1cc(-c2ccc(Cl)c(C)c2)c(Cl)cc1-n1c(=O)ccc2cc(S(=O)(=O)Nc3ccncn3)ccc21 (atropisomer, axis not shown; (M)) [Example 368, (M)-1-(2,4′-dichloro-5-methoxy-3′-methyl-4-biphenylyl)-2-oxo-N-4-pyrimidinyl-1,2-dihydro-6-quinolinesulfonamide]
0.029 | COc1cc(-c2ccc(Cl)c(C)c2)ccc1-n1c(=O)ccc2cc(S(=O)(=O)Nc3cccnn3)ccc21 (atropisomer, axis not shown; (M)) [Example 372, (M)-1-(4′-chloro-3-methoxy-3′-methyl-4-biphenylyl)-2-oxo-N-3-pyridazinyl-1,2-dihydro-6-quinolinesulfonamide]

The remaining lines, values behind:

Compound | IC50 [µM]
COc1cc(-c2cccc(C(F)(F)F)c2)ccc1-n1c(=O)ccc2cc(S(=O)(=O)Nc3cccnn3)ccc21 (atropisomer, axis not shown; (M)) [Example 370, (M)-1-(3-methoxy-3′-(trifluoromethyl)-4-biphenylyl)-2-oxo-N-3-pyridazinyl-1,2-dihydro-6-quinolinesulfonamide] | 2.43
COc1cc(-c2cncc(Cl)c2)c(F)cc1-n1c(=O)ccc2cc(S(=O)(=O)Nc3ccon3)ccc21 (atropisomer, axis not shown; (M)) [Example 409, (M)-1-(4-(5-chloro-3-pyridinyl)-5-fluoro-2-methoxyphenyl)-N-3-isoxazolyl-2-oxo-1,2-dihydro-6-quinolinesulfonamide] | 0.06
